Measured values published in patent publication US5650441A, “Method of assaying CD4 glycoproteins by using certain azo dyes” (The United States of America, as represented by the …, priority 1994, dated 1997).

Legend:
CD4 on PBL = target: T1, CD4 on PBL (Homo sapiens, UniProt P01730); assay: Inhibition of binding of αCD4-FITC (anti-Leu3a) to PBL, flow cytometry; conditions: for remaining activity at 7 µM: compound 7 μM
T1 construct: Human peripheral blood lymphocytes (PBL) were prepared by density gradient centrifugation; endogenous in cells; host or cells: human peripheral blood lymphocytes (PBL)
Method: (§1) Human peripheral blood lymphocytes (PBL) were prepared by density gradient centrifugation as previously described (Weaver et al., 1990). The effect of drugs on the binding of anti-CD4-FITC (αCD4), anti-CD3-FITC (αCD3), anti-CD8-FITC (αCDS), or HIV coat protein rgp120 was measured as previously described (Weaver et al., 1990). Briefly, cells were treated with a drug (10' RT) and then FITC labeled antibody or rgp120 followed by anti-rgp120-FITC. Binding was measured by quantitating cell bound fluorescence using flow cytometry. Some binding assays were run in phenol red free RPMI 1640/5% serum instead of the usual PBS to determine effectiveness under cell culture conditions.
Since anti-Leu3a (αCD4) and rgp120 bind to the same site on the CD4 molecule, interference in binding of αCD4 can be used to screen compounds for possible anti-HIV activity. EB or ATA are used as positive controls since they have been shown previously to block eCD4 and rpg120 binding (Weaver et al, "Polyionic compounds selectively alter availability of CD4 receptors for HIV coat protein rgp120," AIDS Res. Human Retrovir. 6 1125-1130 (1990)). […] Six of the dyes tested show significant ability to block αCD4 binding. Three compounds, Acid Blue 116, Acid Red 115, and Direct Red 79 were selected for more complete analysis.

[1] = target: T2, binding of HIV rgp120 to CD4 on peripheral blood lymphocytes (Homo sapiens, UniProt P01730); assay: Inhibition of HIV rgp120 binding to PBL, detected with anti-rgp120-FITC, flow cytometry; conditions: 10 min, rgp120 binding detected by αrgp120-FITC in PBS, % logarithmic mean channel number
T2 construct: Human peripheral blood lymphocytes (PBL) were prepared by density gradient centrifugation; endogenous in cells; host or cells: human peripheral blood lymphocytes (PBL)
Method: as §1
The results shown in Table 2 confirm that the three dyes selected on the basis of their interference with αCD4 binding can also block binding of rgp120. Their relative efficacy appears to be similar in both assays.

αCD3 binding to PBL = target: T3, αCD3 binding to PBL (Homo sapiens, UniProt P07766); assay: Specificity: binding of αCD3-FITC to PBL
T3 construct: Human peripheral blood lymphocytes (PBL) were prepared by density gradient centrifugation; endogenous in cells; host or cells: human peripheral blood lymphocytes (PBL)
Method: as §1
(§2) We have analyzed the specificity of these compounds by testing their ability to interfere with the binding of two other monoclonal antibodies, αCD3 and αCD8. […] The increase in binding of αCD3 on Direct Red 79 treated cells may reflect nonspecific binding.

αCD8 binding to PBL = assay: Specificity: binding of αCD8-FITC to PBL; parameters: species or system human; conditions: for % Control Binding αCD8: αCD8-FITC binding in PBS, 10 min
Method: as §1, §2

[2] = Viability of PBL after 72 hr culture (propidium iodide exclusion); assay type: cell-based, human; conditions: human, PBL, 72 hr culture, untreated 90, read-out: % Viable Cells
Method: (§3) The effect of compounds on the viability of PBL was determined after culturing PBL for 72 hr at 37° C. Some cells were stimulated with 1 μl/ml of anti-T-cell receptor antibody for this time period. Cells were then washed 1× in PBS and resuspended in PBS with 3 μg/ml propidium iodide. After 10 min incubation cells were analyzed by flow cytometry. Live cells were defined as those excluding propidium iodide.

PBL = assay: as above; assay type: cell-based, human; conditions: 72 hr of continuous culture
Method: as §3

[3] = Viability of PBL after 72 hr culture with anti-TCR stimulation (propidium iodide exclusion); assay type: cell-based, human; conditions: human, anti-tcr stimulated pbl; PBL, 72 hr culture with anti-TCR stimulation, 100 μM; untreated 78; read-out: % Viable Cells
Method: as §3

anti-TCR stimulated PBL = assay: as above; assay type: cell-based, human; conditions: Table 5
Method: as §3

[4] = system: HIV isolate LAV-1BR in PHA stimulated human PBL; assay: microbe, parasite or virus in culture; assay type: cell-based; conditions: for CPM RT: [3H]-TTP incorporated by reverse transcriptase, DMSO control 6338
Method: (§4) The effect of various drugs on growth of HIV isolate LAV-1BR in PHA stimulated human PBL was measured using two assays. Reverse transcriptase activity was measured in disrupted virions from the cell free supernatant as previously described (Anand et al, "Interaction between rifabutin and human immunodeficiency virus type-1: inhibition of replication, cytopathic effect and reverse transcriptase in vitro," Antimicrob. Agents Chemother. 32 684-688 (1988)).

[5] = system: HIV isolate LAV-1BR in PHA stimulated human PBL; assay: Production of intracellular HIV p24 measured by ELISA; assay type: cell-based; conditions: for pg/ml HIV p24: intracellular p24, ELISA, DMSO control 1222
Method: as §4

[6] = Solubility in aqueous solutions; assay type: physicochemical; conditions: concentrations needed for efficacy in the presence of serum
[7] = Binding to serum proteins; assay type: in vitro ADME; conditions: not shown
[8] = 10 min, αCD4-FITC binding to PBL in PBS, % logarithmic mean channel number, compound 10 μM, read-out: % Control Binding
[9] = 10 min, αCD4-FITC binding to PBL in PBS, % logarithmic mean channel number, read-out: % Control Binding

T3 sequence (P07766 23-207): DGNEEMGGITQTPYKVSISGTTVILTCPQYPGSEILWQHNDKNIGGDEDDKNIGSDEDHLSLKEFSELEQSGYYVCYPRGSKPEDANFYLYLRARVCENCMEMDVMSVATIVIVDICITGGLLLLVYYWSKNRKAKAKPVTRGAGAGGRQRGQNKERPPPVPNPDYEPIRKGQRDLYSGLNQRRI
T3 sequence (P04234 22-171 partner): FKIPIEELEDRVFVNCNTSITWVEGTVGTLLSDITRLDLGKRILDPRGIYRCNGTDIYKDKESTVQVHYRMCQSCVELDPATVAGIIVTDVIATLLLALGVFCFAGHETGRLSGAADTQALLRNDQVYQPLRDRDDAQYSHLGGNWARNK
T3 sequence (P09693 23-182 partner): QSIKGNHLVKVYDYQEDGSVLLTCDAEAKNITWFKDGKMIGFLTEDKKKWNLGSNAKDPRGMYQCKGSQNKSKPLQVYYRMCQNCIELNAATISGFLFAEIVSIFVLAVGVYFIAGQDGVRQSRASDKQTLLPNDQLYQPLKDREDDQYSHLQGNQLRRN
T3 sequence (P20963 22-164 partner): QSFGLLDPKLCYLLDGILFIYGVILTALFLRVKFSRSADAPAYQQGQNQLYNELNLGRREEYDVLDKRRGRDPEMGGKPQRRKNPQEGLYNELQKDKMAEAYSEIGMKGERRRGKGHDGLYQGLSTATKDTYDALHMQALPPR

Work on O=C(Nc1ccc(N=Nc2ccc(O)c(C(=O)O)c2)cc1)Nc1ccc(N=Nc2ccc(O)c(C(=O)O)c2)cc1 [Direct Yellow 26, C.I. Direct Yellow 26] yielded a remaining activity at 12 µM (CD4 on PBL; 10 min, αCD4-FITC binding to PBL in PBS, % logarithmic mean channel number, compound 12 μM, read-out: % Control Binding) of 84%.
Work on COc1cc(N=Nc2cc(S(=O)(=O)O)cc3cc(S(=O)(=O)O)cc(O)c23)c(C)cc1NC(=O)Nc1cc(C)c(N=Nc2cc(S(=O)(=O)O)cc3cc(S(=O)(=O)O)cc(O)c23)cc1OC [Direct Red 79, C.I. Direct Red 79] yielded a remaining activity at 20 µM (CD4 on PBL; 10 min, Table 3, αCD4-FITC binding in PBS, compound 20 μM, read-out: % Control Binding αCD4) of 22%, a remaining activity at 10 µM (CD4 on PBL; [8]) of 13% and a remaining rgp120 binding (% of control) at 10 µM ([1]; compound 10 μM) of 30%. The αCD3 binding, % of control at 20 µM (αCD3 binding to PBL; 10 min, αCD3-FITC binding in PBS, compound 20 μM) was 124%, the “effect on binding of αCD3 (in words)” value (αCD3 binding to PBL; Table 3) was “does not affect binding” and the “effect on binding of αCD8 (in words)” value (αCD8 binding to PBL; Table 3) was “does not affect binding”. The “% Control Binding αCD8” value (αCD8 binding to PBL; compound 20 μM) was 106%, the viability at 72 h, 400 µM ([2]; 400 μM) was 89% and the “effect on the viability of PBL (in words)” value (PBL) was “no effect”. For the same molecule, the viability at 72 h, 100 µM [3] was 54%, the “effect on the proliferation of αTCR stimulated PBL (in words)” value (anti-TCR stimulated PBL) was “limited effect” and the inhibition at 100 µM ([4]; Human immunodeficiency virus 1, 144 h, HIV reverse transcriptase activity, six day culture, 100 μM) was 97%. The “CPM RT” value ([4]; six day culture, 100 μM) was 145 CPM, the “production of reverse transcriptase activity (in words)” value ([4]; after six days of culture) was “strongly inhibit” and the “p24 production (in words)” value ([5]; intracellular HIV p24 protein) was “strongly decrease”. For the same molecule, the “pg/ml HIV p24” value ([5]; 5 μg/ml) was 333 pg/mL.
With O=S(=O)(O)c1cccc(N=Nc2c(O)ccc3cc(S(=O)(=O)O)cc(S(=O)(=O)O)c23)c1 [FD1] the remaining activity at 5 µM (CD4 on PBL; 10 min, αCD4-FITC binding to PBL in PBS, % logarithmic mean channel number, compound 5 μM, read-out: % Control Binding) was 102%.
In the case of O=S(=O)(O)c1ccc2c(N=Nc3ccccc3)ccc(N=Nc3ccc(Nc4ccccc4)c4c(S(=O)(=O)O)cccc34)c2c1 [Acid Blue 116, C.I. Acid Blue 116], the remaining activity at 4 µM (CD4 on PBL; 10 min, Table 3, αCD4-FITC binding in PBS, compound 4 μM, read-out: % Control Binding αCD4) is reported as 1%, the remaining activity at 7 µM (CD4 on PBL; [9]) is reported as 0% and the remaining rgp120 binding (% of control) at 7 µM ([1]; compound 7 μM) is reported as 9%. For the same molecule, the αCD3 binding, % of control at 4 µM (αCD3 binding to PBL; 10 min, αCD3-FITC binding in PBS, compound 4 μM) was 44%, the “reduction of binding of αCD3 (fraction)” value (αCD3 binding to PBL; Table 3) was “about 1/2” and the “reduction of binding of αCD8 (fraction)” value (αCD8 binding to PBL; Table 3) was “about 1/2”. For the same molecule, the “% Control Binding αCD8” value (αCD8 binding to PBL; compound 4 μM) was 54% and the “solubility in aqueous solutions (in words)” value [6] was “near their limits of solubility”.
With Cc1ccccc1N=Nc1ccc(N=Nc2c(O)c(S(=O)(=O)[O-])cc3cc(S(=O)(=O)[O-])ccc23)c(C)c1.[Na+].[Na+] [Acid Red 115, C.I. Acid Red 115] the “% Control Binding αCD4” value (CD4 on PBL; Table 3, αCD4-FITC binding in PBS, compound 6 μM, 10 min) was 2%, the “% Control Binding” value (CD4 on PBL; αCD4-FITC binding to PBL in PBS, % logarithmic mean channel number, compound 6 μM, 10 min) was 2% and the “% Control Binding” value ([1]; compound 6 μM) was 10%. The “effect on binding of αCD3 (in words)” value (αCD3 binding to PBL; Table 3) was “interferes with αCD3”, the “% Control Binding αCD3” value (αCD3 binding to PBL; αCD3-FITC binding in PBS, compound 6 μM, 10 min) was 41% and the “% Control Binding αCD8” value (αCD8 binding to PBL; compound 6 μM) was 90%. For the same molecule, the “solubility in aqueous solutions (in words)” value [6] was “near their limits of solubility”.
In the case of Cc1cc(-c2cc(C)c(N=Nc3c(O)ccc4ccccc34)cc2S(=O)(=O)O)c(S(=O)(=O)O)cc1N=Nc1c(O)ccc2ccccc12 [Acid Red 89, C.I. Acid Red 89], the remaining activity at 7 µM (CD4 on PBL; [9]) is reported as 6%.
In the case of COc1cc(-c2ccc(N=Nc3ccc4c(S(=O)(=O)[O-])cc(S(=O)(=O)[O-])c(N)c4c3O)c(OC)c2)ccc1N=Nc1ccc2c(S(=O)(=O)[O-])cc(S(=O)(=O)[O-])c(N)c2c1O.[Na+].[Na+].[Na+].[Na+] [Direct Blue 1, C.I. Direct Blue 1], the “% Control Binding” value (CD4 on PBL; αCD4-FITC binding to PBL in PBS, % logarithmic mean channel number, compound 10 μM) is reported as 1%.
In the case of Cc1cc(NC(=O)Nc2ccc(N=Nc3cc(S(=O)(=O)O)c4cccc(S(=O)(=O)O)c4c3)c(C)c2)ccc1N=Nc1cc(S(=O)(=O)O)c2cccc(S(=O)(=O)O)c2c1 [Direct Yellow 50, reference compound], the remaining activity at 50 µM (CD4 on PBL; 10 min, αCD4-FITC binding to PBL in PBS, % logarithmic mean channel number, compound 50 μM, read-out: % Control Binding) is reported as 42%.
In the case of Nc1ccc2cc(S(=O)(=O)O)cc(O)c2c1N=Nc1ccc(NC(=O)Nc2ccc(N=Nc3c(N)ccc4cc(S(=O)(=O)O)cc(O)c34)c(S(=O)(=O)O)c2)cc1S(=O)(=O)O [Direct Red 75, C.I. Direct Red 75], the remaining activity at 10 µM (CD4 on PBL; [8]) is reported as 70%.
For O=C(O)C1=CC(=C(c2ccc(O)c(C(=O)O)c2)c2ccc(O)c(C(=O)O)c2)C=CC1=O [ATA, aurin tricarboxlyic acid, reference compound], the viability at 72 h, 10 µM ([2]; 10 μM) was 86%, the inhibition at 1 µM ([4]; Human immunodeficiency virus 1, 144 h, HIV reverse transcriptase activity, six day culture, 1 μM) was 97% and the “CPM RT” value ([4]; six day culture, 1 μM) was 109 CPM. For the same molecule, the “pg/ml HIV p24” value ([5]; 0.25 μg/ml) was 111 pg/mL, the “pg/ml HIV p24” value ([5]; 2.5 μg/ml) was 0 pg/mL and the “binding to serum proteins (in words)” value [7] was “does not bind to serum proteins”.
